The test system of one test is NCI-H1581. Description: Cytotoxicity against human NCI-H1581 cells assessed as inhibition of cell growth incubated for 72 hrs by MTT assay. It counts as functional, cell-based. Conditions: NCI-H1581, 72 h.
The subject of a further test is NCI-H2228. Description: Cytotoxicity against human H2228 cells assessed as inhibition of cell growth incubated for 72 hrs by MTT assay. It is filed as functional, cell-based. Conditions: NCI-H2228, 72 h. For orientation: Tetrazolium dyes change colour on reduction, which living cells bring about.
Another test has as its system MDA-MB-231. Description: Cytotoxicity against human MDA-MB-231 cells assessed as inhibition of cell growth incubated for 72 hrs by MTT assay. Conditions: MDA-MB-231, 72 h. It counts as functional, cell-based.
Another test has as its system MCF7. Description: Cytotoxicity against human MCF-7 cells assessed as inhibition of cell growth incubated for 72 hrs by MTT assay. It is filed as functional, cell-based. Conditions: MCF7, 72 h.
Another test addresses Autotaxin (Homo sapiens, UniProt Q13822). Description: Negative allosteric modulation activity against human ATX using FS-3 as substrate preincubated for 45 mins followed by substrate addition and measured every 30 mins by multi-mode microplate reader.
For the next test, the system named is RAW264.7. Description: Cytotoxicity against mouse RAW264.7 cells assessed as inhibition of cell growth incubated for 72 hrs by MTT assay. Conditions: RAW264.7, 72 h. It is filed as functional, cell-based.
Another test has as its system A549. Description: Cytotoxicity against human A549 cells assessed as inhibition of cell growth incubated for 72 hrs by MTT assay. It counts as functional, cell-based. Particulars: A549, 72 h.
The test system of another test is Hep 3B2. Description: Cytotoxicity against human Hep3B cells assessed as inhibition of cell growth incubated for 72 hrs by MTT assay. It counts as functional, cell-based.

By IC50 is commonly meant the concentration at which inhibition is half-maximal. Consider `CCc1nc2c(C)cc(-c3ccc(CN4CCC(O)CC4)cc3)cn2c1NC(=O)OCc1cc(Cl)cc(Cl)c1`, for which the half-maximal inhibitory concentration (IC50) in the test with NCI-H1581 amounted to 4.8 µM; in the test on NCI-H2228 it was 7.36 µM; in the test on MDA-MB-231, 1.58 µM; in the test with MCF7 it was 5.32 µM; against Autotaxin, 0.017 µM; in the test on RAW264.7 it was 4.58 µM.
`CCc1nc2c(C)cc(-c3ccc(CO)cc3)cn2c1NC(=O)OCc1ccc(F)c(F)c1` had an IC50 at Autotaxin of more than 1 µM.
On to `CCc1nc2c(C)cc(-c3ccc(CN4CCSCC4)cc3)cn2c1NC(=O)OCc1cc(Cl)cc(Cl)c1`, for which the IC50 in the test with A549 is more than 20 µM; in the test with MCF7, more than 20 µM; against Autotaxin, 0.091 µM; in the test on Hep 3B2, more than 20 µM.
Regarding `CCc1nc2c(C)cc(-c3ccc(CN4CCOCC4)cc3)cn2c1NC(=O)OCc1ccc(F)cc1`, the IC50 is more than 20 µM in the test on NCI-H1581; more than 20 µM in the test with NCI-H2228; more than 20 µM in the test with MDA-MB-231; more than 20 µM in the test on A549; more than 20 µM with MCF7; 0.0513 µM against Autotaxin. The half-maximal inhibitory concentration (IC50) in the test with Hep 3B2 and with RAW264.7 was more than 20 µM throughout.
As to `CCc1nc2c(C)cc(-c3ccc(CN4CCN(C)CC4)cc3)cn2c1NC(=O)OCc1cc(Cl)cc(Cl)c1`, the half-inhibitory concentration (IC50) in the test with A549 turned out to be 4.02 µM; in the test on MCF7 it was 5.78 µM; on Autotaxin, 0.217 µM; in the test with Hep 3B2, 4.9 µM; in the test on RAW264.7, 1.41 µM.
As to `CCc1nc2c(C)cc(-c3ccc(CN4CCN(CC)CC4)cc3)cn2c1NC(=O)OCc1ccc(F)c(F)c1`, at Autotaxin, half-maximal inhibition (IC50) was put at 0.171 µM.
Consider `CCc1nc2c(C)cc(-c3ccc(CN4CCC(C)CC4)cc3)cn2c1NC(=O)OCc1cc(Cl)cc(Cl)c1`, for which the half-inhibitory concentration (IC50) is 4.04 µM with NCI-H1581; 5.15 µM in the test on NCI-H2228; 5.83 µM in the test on MDA-MB-231; 8.18 µM in the test on A549; 3.98 µM with MCF7; 0.024 µM against Autotaxin. Moreover, the IC50 is 4.85 µM with Hep 3B2 and 2.13 µM in the test with RAW264.7.
`CCc1nc2c(C)cc(-c3ccc(CN4CCN(C)CC4)cc3)cn2c1NC(=O)OCc1ccc(F)c(F)c1`: the IC50 in the test on MDA-MB-231 is 6.23 µM; in the test with A549 it was more than 20 µM; in the test on MCF7, 6.44 µM; against Autotaxin, 0.154 µM; with Hep 3B2, 4.94 µM; in the test with RAW264.7, 3.59 µM.
As for `CCc1nc2c(C)cc(N3CCN(CC(=O)N4CC(O)C4)CC3)cn2c1N(C)c1nc(-c2ccc(F)cc2)c(C#N)s1` [ZIRITAXESTAT], the IC50 in the test with NCI-H1581, in the test with NCI-H2228, with MDA-MB-231, with A549, with MCF7 and in the test on Hep 3B2 was more than 20 µM in each case. Further, the IC50 with RAW264.7 is more than 20 µM.
As for `CCc1nc2c(C)cc(-c3ccc(CN4CCN(CCO)CC4)cc3)cn2c1NC(=O)OCc1ccc(F)c(F)c1`, the IC50 with NCI-H2228 was found to be 9.65 µM; in the test with MDA-MB-231 it was 4.83 µM; in the test on A549 it was 5.58 µM; in the test with MCF7, 9.51 µM; on Autotaxin, 0.041 µM; in the test on Hep 3B2, 10.6 µM. Further, the IC50 in the test with RAW264.7 amounted to 5 µM.
As for `CCc1nc2c(C)cc(-c3ccc(CN4CCN(CCO)CC4)cc3)cn2c1NC(=O)OCc1ccc(C(F)(F)F)cc1`, the IC50 with NCI-H1581 worked out at 5.67 µM; with A549, 5.06 µM; with MCF7, 7.01 µM; at Autotaxin, 0.081 µM; in the test on Hep 3B2 it was 6.09 µM; in the test on RAW264.7 it was 1.98 µM.
With `CCc1nc2c(C)cc(-c3ccc(CN4CCCC4)cc3)cn2c1NC(=O)OCc1cc(Cl)cc(Cl)c1`, the half-inhibitory concentration (IC50) at Autotaxin turned out to be 0.14 µM.
Take `O=C(CCN1CCN(C(=O)OCc2cc(Cl)cc(Cl)c2)CC1)c1ccc2[nH]c(=O)oc2c1`: the IC50 in the test on NCI-H1581, with NCI-H2228, in the test on MDA-MB-231, with A549, in the test with MCF7 and in the test with Hep 3B2 was more than 20 µM each time. For the same molecule, the IC50 in the test on RAW264.7 came out at 9.58 µM.
On to `CCc1nc2c(C)cc(-c3ccc(CN(CCO)CCO)cc3)cn2c1NC(=O)OCc1cc(Cl)cc(Cl)c1`, for which the IC50 at Autotaxin stood at 0.071 µM.
`CCc1nc2c(C)cc(-c3ccc(CN4CCN(CC)CC4)cc3)cn2c1NC(=O)OCc1ccc(C(F)(F)F)cc1`: it took 0.234 µM to reach half-maximal inhibition at Autotaxin (IC50).
For the molecule `CCc1nc2c(C)cc(-c3ccc(CN4CCN(C)CC4)cc3)cn2c1NC(=O)OCc1ccc(C(F)(F)F)cc1`, the half-maximal inhibitory concentration (IC50) in the test on MDA-MB-231 is 4.31 µM; in the test with A549, more than 20 µM; in the test on MCF7, more than 20 µM; on Autotaxin, 0.313 µM; in the test with Hep 3B2, more than 20 µM; with RAW264.7, more than 20 µM.
As to `CCc1nc2c(C)cc(-c3ccc(CN4CCOCC4)cc3)cn2c1NC(=O)OCc1ccc(OC)c(Cl)c1`, the IC50 is more than 20 µM with NCI-H1581; more than 20 µM with NCI-H2228; more than 20 µM with MDA-MB-231; more than 20 µM with A549; more than 20 µM in the test with MCF7; 0.0335 µM against Autotaxin. In addition, the IC50 in the test on Hep 3B2 and with RAW264.7 was more than 20 µM in each case.
As to `CCc1nc2c(C)cc(-c3ccc(CN4CCSCC4)cc3)cn2c1NC(=O)OCc1ccc(F)c(F)c1`, the concentration for half-maximal inhibition (IC50) is more than 20 µM in the test on MDA-MB-231, more than 20 µM in the test on A549, 0.287 µM on Autotaxin and more than 20 µM in the test with Hep 3B2.
The molecule `CCc1nc2c(C)cc(-c3ccc(CN4CCCCC4)cc3)cn2c1NC(=O)OCc1cc(Cl)cc(Cl)c1` showed a half-inhibitory concentration (IC50) against Autotaxin of 0.164 µM.
In turn, `CCc1nc2c(C)cc(-c3ccc(CN4CCOCC4)cc3)cn2c1NC(=O)OCc1cc(Cl)cc(Cl)c1` registered an IC50 at Autotaxin of 0.129 µM.
For the molecule `CCc1nc2c(C)cc(-c3ccc(CNCCO)cc3)cn2c1NC(=O)OCc1cc(Cl)cc(Cl)c1`, the IC50 in the test on MDA-MB-231 was more than 20 µM; in the test with A549 it was more than 20 µM; in the test with MCF7, more than 20 µM; against Autotaxin it was 0.034 µM; in the test with Hep 3B2, more than 20 µM.
With `CCc1nc2c(C)cc(-c3ccc(CN4CCC[C@H]4CO)cc3)cn2c1NC(=O)OCc1ccc(F)cc1`, the IC50 was more than 20 µM with NCI-H1581; more than 20 µM in the test with NCI-H2228; more than 20 µM in the test on MDA-MB-231; more than 20 µM in the test on A549; more than 20 µM with MCF7; 0.0264 µM on Autotaxin. The IC50 in the test on Hep 3B2 and in the test with RAW264.7 was more than 20 µM throughout.
In the case of `CCc1nc2c(C)cc(-c3ccc(CN4CCC[C@H]4CO)cc3)cn2c1NC(=O)OCc1cc(Cl)cc(Cl)c1`, the IC50 turned out to be 5.78 µM in the test with A549, 0.041 µM at Autotaxin and 2.51 µM in the test on RAW264.7.
For the molecule `CCc1nc2c(C)cc(-c3ccc(CN4CCN(CCO)CC4)cc3)cn2c1NC(=O)OCc1ccc(F)cc1`, the half-maximal inhibitory concentration (IC50) is more than 20 µM in the test on NCI-H1581; more than 20 µM in the test with NCI-H2228; more than 20 µM in the test with MDA-MB-231; more than 20 µM with A549; more than 20 µM in the test on MCF7; 0.0071 µM against Autotaxin. Moreover, the IC50 in the test on Hep 3B2 and with RAW264.7 was more than 20 µM each time.
